The values that follow come from US20230081426A1, “COMPOUNDS AND METHODS FOR KRAS MODULATION AND INDICATIONS THEREFOR” (Plexxikon Inc., priority 2020, published 2023).

The target of experiment [1] is T1, G12D-mutant human KRAS (amino acid residues 1-188) (Homo sapiens, UniProt P01116, G12D).
T1 construct: G12D or G12C-mutant human KRAS (amino acid residues 1-188) with FLAG tag; made in house; host or cells: E. coli
Briefly: KRAS Binding Disruption Assay (AlphaScreen; biotinylated KRpep-2d analogue or RAF1-RBD), G12D. Particulars: KRAS G12D; geometric mean; read-out: KRAS GMean IC50 (uM) MUTATION: G12D. Put shortly: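 Displacement format with mutant KRAS, biotinylated KRpep-2d analogue or RAF1-RBD (5-20 nM each) at pH 7.5 with 5 mM MgCl2.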
(In general: In Alpha technology, singlet oxygen from a donor bead excites a nearby acceptor bead.)

For experiment [2], the target named is T2, G12C-mutant human KRAS (amino acid residues 1-188) (Homo sapiens, UniProt P01116, G12C).
T2 construct: G12D or G12C-mutant human KRAS (amino acid residues 1-188) with FLAG tag; made in house; host or cells: E. coli
Briefly: KRAS Binding Disruption Assay (AlphaScreen; biotinylated KRpep-2d analogue or RAF1-RBD), G12C. Particulars: geometric mean, read-out: KRAS GMean IC50 (uM) MUTATION: G12C. The procedure:
Compound binding disrupts the interaction of KRpep-2d or RAF1-RBD with KRAS, leading to a decrease in Alpha signal.
All assay components were prepared in 20 mM HEPES (pH 7.5), 100 mM NaCl, 5 mM MgCl2, 0.01% Tween-20, and 0.01% BSA. Biotinylated analogues of KRpep-2d were custom synthesized. The binding disruption assays were performed using 5-20 nM of mutant KRAS and 5-20 nM of either biotinylated KRpep-2d analogue or RAF1-RBD. 19 μL of KRAS protein and 4 μL of biotinylated KRpep-2d or RAF1-RBD were added to the wells of a 384-well plate containing 1 μL of various concentrations of test compound or DMSO vehicle. 16 wells containing KRAS, biotinylated KRpep-2d or RAF1-RBD, and 5% DMSO served as high controls. 16 wells containing KRAS only and 5% DMSO served as low controls. Binding reactions were incubated for 1 hour at 25° C., then Anti-Flag Acceptor and Streptavidin Donor Alpha beads were added at a final concentration of 10 μg/mL for an additional hour at room temperature. Alpha signal was read out on a Perkin Elmer Envision HTS instrument. The percentage inhibition at individual compound concentrations relative to high and low controls was calculated. The data were analyzed by using nonlinear regression to generate IC50 values.

The target of experiment [3] is T3, G12V-mutant human KRAS (amino acid residues 1-188) (Homo sapiens, UniProt P01116, G12V).
T3 construct: G12V-mutant human KRAS (amino acid residues 1-188) with FLAG tag was purified from E. coli; made in house; host or cells: E. coli
As to the kind of experiment: KRAS Binding Competition Assay (AlphaScreen; biotinylated KRpep-2d analogue), G12V. Particulars: geometric mean, read-out: KRAS GMean IC50 (uM) MUTATION: G12V.

In the case of `CC(=O)NCCCN1CCCC1COc1nc(N2C[C@H]3CC[C@@H](C2)N3)c2ccc(-c3cc(O)cc4ccccc34)c(F)c2n1` (mixture of isomers) [P-0674, N-(3-((RS)-2-(((4-((1R,5S)-3,8-diazabicyclo[3.2.1]octan-3-yl)-8-fluoro-7-(3-hydroxynaphthalen-1-yl)quinazolin-2-yl)oxy)methyl)pyrrolidin-1-yl)propyl)acetamide], the IC50 in experiment [1] and in experiment [2] was 0.0001 to 10 µM in each case.
`Cc1cc(CN2[C@@H]3CC[C@H]2CN(c2nc(OCC45CCCN4CCC5)nc4cc(-c5cc(O)cc6ccccc56)ccc24)C3)no1` [P-0006, 4-(4-((1R,5S)-8-((5-methylisoxazol-3-yl)methyl)-3,8-diazabicyclo[3.2.1]octan-3-yl)-2-((tetrahydro-1H-pyrrolizin-7a(5H)-yl)methoxy)quinazolin-7-yl)naphthalen-2-ol]: the IC50 is 0.0001 to 10 µM in experiment [1] and 10 to 100 µM in experiment [2].
For `CCc1cc2c(N3C[C@H]4CC[C@@H](C3)N4)nc(OC[C@@H]3CCCN3C)nc2c(F)c1-c1cc(O)cc2ccccc12` [P-0013, 4-(4-((1R,5S)-3,8-diazabicyclo[3.2.1]octan-3-yl)-6-ethyl-8-fluoro-2-(((S)-1-methylpyrrolidin-2-yl)methoxy)quinazolin-7-yl)naphthalen-2-ol], the IC50 in experiment [1] and in experiment [2] was 0.0001 to 10 µM each time.
For `CN(C)CCNc1nc(N2C[C@H]3CC[C@@H](C2)N3)c2ccc(-c3cc(O)cc4ccccc34)cc2n1` [P-0022, 4-(4-((1R,5S)-3,8-diazabicyclo[3.2.1]octan-3-yl)-2-((2-(dimethylamino)ethyl)amino)quinaz-olin-7-yl)naphthalen-2-ol], the concentration for half-maximal inhibition (IC50) in experiment [1] fell in the range of 0.0001 to 10 µM; in experiment [2], 10 to 100 µM.
`CNC(=O)C(C)(C)COc1nc(N2C[C@H]3CC[C@@H](C2)N3)c2ccc(-c3cc(O)cc4ccccc34)c(F)c2n1` [P-0621, 3-((4-((1R,5S)-3,8-diazabicyclo[3.2.1]octan-3-yl)-8-fluoro-7-(3-hydroxynaphthalen-1-yl)quinazolin-2-yl)oxy)-N,2,2-trimethylpropanamide]: the figures for the IC50 in experiment [1] and in experiment [3] were 0.0001 to 10 µM and 10 to 100 µM, respectively.
For the molecule `Oc1cc(-c2ccc3c(N4CC5CCC(C4)N5)nc(OCC4CCC(O)C4)nc3c2F)c2ccccc2c1` [P-0622, 4-(4-((1R,5S)-3,8-diazabicyclo[3.2.1]octan-3-yl)-8-fluoro-2-((3-hydroxycyclopentyl)methoxy)quinazo-lin-7-yl)naphthalen-2-ol], the IC50 in experiment [1] was 0.0001 to 10 µM; in experiment [3] it was 10 to 100 µM.
`CN1CCc2c(cccc2Oc2nc(N3C[C@H]4CC[C@@H](C3)N4)c3ccc(-c4cc(O)cc5ccccc45)c(F)c3n2)C1` [P-0623, 4-(4-((1R,5S)-3,8-diazabicyclo[3.2.1]octan-3-yl)-8-fluoro-2-((2-methyl-1,2,3,4-tetrahydroisoquinolin-5-yl)oxy)quinazolin-7-yl)naphthalen-2-ol]: the half-inhibitory concentration (IC50) in experiment [1] fell in the range of 0.0001 to 10 µM; in experiment [3], 10 to 100 µM.
With `O=Cc1cccc2[nH]cc(-c3c(F)cc4c(N5C[C@H]6CC[C@@H](C5)N6)nc(OCC56CCCN5CCC6)nc4c3F)c12` [P-0624, 3-(4-((1R,5S)-3,8-diazabicyclo[3.2.1]octan-3-yl)-6,8-difluoro-2-((tetrahydro-1H-pyrrolizin-7a(5H)-yl)methoxy)quinazolin-7-yl)-1H-indole-4-carbaldehyde], the IC50 lay within 0.0001 to 10 µM in experiment [1] and 10 to 100 µM in experiment [3].
Consider `Fc1c(-c2c[nH]c3cccc(C(F)F)c23)ccc2c(N3C[C@H]4CC[C@@H](C3)N4)nc(OCC34CCCN3CCC4)nc12` [P-0625, 4-((1R,5S)-3,8-diazabicyclo[3.2.1]octan-3-yl)-7-(4-(difluoromethyl)-1H-indol-3-yl)-8-fluoro-2-((tetrahydro-1H-pyrrolizin-7a(5H)-yl)methoxy)quinazoline], for which the IC50 in experiment [1] and in experiment [3] was 0.0001 to 10 µM each time.
As to `Cc1[nH]c2ccccc2c1-c1ccc2c(N3C[C@H]4CC[C@@H](C3)N4)nc(OCC34CCCN3CCC4)nc2c1F` [P-0626, 4-((1R,5S)-3,8-diazabicyclo[3.2.1]octan-3-yl)-8-fluoro-7-(2-methyl-1H-indol-3-yl)-2-((tetrahydro-1H-pyrrolizin-7a(5H)-yl)methoxy)quinazoline], the IC50 in experiment [1] is 0.0001 to 10 µM; in experiment [3], 10 to 100 µM.
On the same counts, the results for `CNC(=O)CN1[C@@H]2CC[C@H]1CN(c1nc(OCC34CCCN3CCC4)nc3c(F)c(-c4cc(O)cc5ccccc45)ccc13)C2` [P-0627, 2-((1R,5S)-3-(8-fluoro-7-(3-hydroxynaphthalen-1-yl)-2-((tetrahydro-1H-pyrrolizin-7a(5H)-yl)methoxy)quinazolin-4-yl)-3,8-diazabicyclo[3.2.1]octan-8-yl)-N-methylacetamide] are 0.0001 to 10 µM and 0.0001 to 10 µM.
On the same counts, the results for `OCCCN1[C@@H]2CC[C@H]1CN(c1nc(OCC34CCCN3CCC4)nc3c(F)c(-c4cc(O)cc5ccccc45)ccc13)C2` [P-0628, 4-(8-fluoro-4-((1R,5S)-8-(3-hydroxypropyl)-3,8-diazabicyclo[3.2.1]octan-3-yl)-2-((tetrahydro-1H-pyrrolizin-7a(5H)-yl)methoxy)quinazolin-7-yl)naphthalen-2-ol] are 0.0001 to 10 µM and 0.0001 to 10 µM.
`OCC1CN(c2nc(N3C[C@H]4CC[C@@H](C3)N4)c3ccc(-c4cc(O)cc5ccccc45)c(F)c3n2)CC1O` (stereo partly drawn) [P-0629, 1-(4-((1R,5S)-3,8-diazabicyclo[3.2.1]octan-3-yl)-8-fluoro-7-(3-hydroxynaphthalen-1-yl)quinazolin-2-yl)-4-(hydroxymethyl)pyrrolidin-3-ol]: the IC50 in experiment [1] was in the range of 0.0001 to 10 µM; in experiment [3], 10 to 100 µM.
In the case of `CN(C)C(C)(C)CNc1nc(N2C[C@H]3CC[C@@H](C2)N3)c2ccc(-c3cc(O)cc4ccccc34)c(F)c2n1` [P-0630, 4-(4-((1R,5S)-3,8-diazabicyclo[3.2.1]octan-3-yl)-2-((2-(dimethylamino)-2-methylpropyl)amino)-8-fluoroquinazolin-7-yl)naphthalen-2-ol], the 50% inhibitory concentration (IC50) in experiment [1] lay within 0.0001 to 10 µM; in experiment [3], 10 to 100 µM.
Consider `Oc1cc(-c2ccc3c(N4C[C@H]5CC[C@@H](C4)N5)nc(NCC45CCCN4CCC5)nc3c2F)c2ccccc2c1` [P-0631, 4-(4-((1R,5S)-3,8-diazabicyclo[3.2.1]octan-3-yl)-8-fluoro-2-(((tetrahydro-1H-pyrrolizin-7a(5H)-yl)methyl)amino)quinazolin-7-yl)naphthalen-2-ol], for which the concentration for half-maximal inhibition (IC50) in experiment [1] is 0.0001 to 10 µM; in experiment [3], 10 to 100 µM.
Take `Oc1cc(-c2ccc3c(N4C[C@H]5CC[C@@H](C4)N5)nc(N4CC(N5CC(O)C5)C4)nc3c2F)c2ccccc2c1` [P-0632, 1′-(4-((1R,5S)-3,8-diazabicyclo[3.2.1]octan-3-yl)-8-fluoro-7-(3-hydroxynaphthalen-1-yl)quinazolin-2-yl)-[1,3′-biazetidin]-3-ol]: the IC50 in experiment [1] and in experiment [3] was 0.0001 to 10 µM throughout.
As to `Oc1cc(-c2ccc3c(N4C[C@H]5CC[C@@H](C4)N5)nc(N4CC(O)C4)nc3c2F)c2ccccc2c1` [P-0633, 1-(4-((1R,5S)-3,8-diazabicyclo[3.2.1]octan-3-yl)-8-fluoro-7-(3-hydroxynaphthalen-1-yl)quinazolin-2-yl)azetidin-3-ol], the IC50 lay within 0.0001 to 10 µM in experiment [1] and 100 to 1000 µM in experiment [3].
Take `OCC1CCN(c2nc(N3C[C@H]4CC[C@@H](C3)N4)c3ccc(-c4cc(O)cc5ccccc45)c(F)c3n2)C1` (stereo partly drawn) [P-0634, 4-(4-((1R,5S)-3,8-diazabicyclo[3.2.1]octan-3-yl)-8-fluoro-2-(3-(hydroxymethyl)pyrrolidin-1-yl)quinazolin-7-yl)naphthalen-2-ol]: the IC50 in experiment [1] lay within 0.0001 to 10 µM; in experiment [3], 100 to 1000 µM.
Consider `CN(C)C1(C)CN(c2nc(N3C[C@H]4CC[C@@H](C3)N4)c3ccc(-c4cc(O)cc5ccccc45)c(F)c3n2)C1` [P-0635, 4-(4-((1R,5S)-3,8-diazabicyclo[3.2.1]octan-3-yl)-2-(3-(dimethylamino)-3-methylazetidin-1-yl)-8-fluoroquinazolin-7-yl)naphthalen-2-ol], for which the IC50 in experiment [1] lay within 0.0001 to 10 µM; in experiment [3], 10 to 100 µM.
With `Cc1cccc2cccc(-c3ccc4c(N5C[C@H]6CC[C@@H](C5)N6C(=O)CC#N)nc(OCC56CCCN5CCC6)nc4c3F)c12` [P-0813, 3-((1R,5S)-3-(8-fluoro-7-(8-methylnaphthalen-1-yl)-2-((tetrahydro-1H-pyrrolizin-7a(5H)-yl)methoxy)quinazolin-4-yl)-3,8-diazabicyclo[3.2.1]octan-8-yl)-3-oxopropanenitrile], the IC50 in experiment [2] lay within 0.0001 to 10 µM.

By IC50 is commonly meant the concentration that inhibits the measured activity by half.
